Laboratory results reported in patent publication US4755594A, “N^6 -substituted adenosines” (Warner-Lambert Company, priority 1986, dated 1988).
pIC50: −log10 of the molar value.

Experiments:
adenosine A2 receptor = biological target: T1, adenosine A2 receptor (Rattus norvegicus, UniProt P30543); test: Adenosine Receptor Binding--A2 Receptor Affinity (RBA2), [3H]NECA, striatal membranes; conditions: read-out: RBA-2 IC50
T1 construct: Brains were thawed and then kept on ice while the striata were dissected out; tissue Pel-Freez (Rogers, Ark.); host or cells: striata of Sprague-Dawley rats (Long-Evans hooded rats gave essentially identical results)
T1 sequence (P30543 whole entry): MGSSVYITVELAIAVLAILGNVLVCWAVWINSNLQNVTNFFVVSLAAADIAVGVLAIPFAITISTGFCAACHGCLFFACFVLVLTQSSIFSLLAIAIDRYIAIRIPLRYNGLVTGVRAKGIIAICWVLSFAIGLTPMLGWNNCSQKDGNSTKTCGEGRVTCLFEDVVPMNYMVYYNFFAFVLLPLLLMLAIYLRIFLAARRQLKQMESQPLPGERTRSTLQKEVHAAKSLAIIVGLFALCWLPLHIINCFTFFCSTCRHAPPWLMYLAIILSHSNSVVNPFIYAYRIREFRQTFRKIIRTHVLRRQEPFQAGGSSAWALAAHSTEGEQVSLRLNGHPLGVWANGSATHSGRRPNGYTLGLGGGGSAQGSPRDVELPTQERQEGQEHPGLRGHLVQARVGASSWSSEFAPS
Procedure: Adenosine Receptor Binding--A2 Receptor Affinity (RBA2)
Brains from 200-500 g mixed sex Sprague-Dawley rats were purchased from Pel-Freez (Rogers, Ark.). Fresh brains from male Long-Evans hooded rats (Blue Spruce Farms, Altamont, NY) gave essentially identical results. Brains were thawed and then kept on ice while the striata were dissected out. Striata were disrupted in 10 vol of ice-cold 50 mM Tris.HCl (pH 7.7 at 25° C., pH 8.26 at 5° C.) (Tris) for 30 seconds in a Polytron PT-10 (Brinkmann) at setting 5. The suspension was centrifuged at 50,000 xg for ten minutes, the supernatant discarded, the pellet resuspended in 10 vol ice-cold Tris as above, recentrifuged, resuspended at 1 g/5ml, and stored in plastic vials at -70° C. (stable for at least six months). When needed, tissue was thawed at room temperature, disrupted in a Polytron, and kept on ice until used.
All incubations were for 60 minutes at 25° C. in 12×75 mm glass tubes containing 1 ml Tris with 5 mg original tissue weight of rat weight of rat striatal membranes, 4 nM [^3 H]--N-ethyl adenosine-5'-carboxamide ([^3 H]NECA), 50 nM N^6 -cyclopentyladenosine (to eliminate A1 receptor binding), 10 mM MgCl2, 0.1 units/ml of adenosine deaminase and 1% dimethylsulfoxide. N^6 -Cyclopentyladenosine was dissolved at 10 mM in 0.02N HCl and diluted in Tris. Stock solutions and dilutions of N^6 -cyclopentyladenosine could be stored at -20° C. for several months. Test compounds were dissolved at 10 mM in dimethylsulfoxide on the same day as the experiment, and diluted in dimethylsulfoxide to 100×the final incubation concentration. Control incubations received an equal volume (10 μl) of dimethylsulfoxide; the resulting concentration of dimethylsulfoxide had no effect on binding. [^3 H]NECA was diluted to 40 nM in Tris. The membrane suspension (5 mg/0.79 ml) contained sufficient MgCl2 and adenosine deaminase to give 10 mM and 0.1 units/ml, respectively, final concentration in the incubation. […] After all additions, the rack of tubes was vortexed, and the tubes were then incubated for 60 min at 25° C. in a shaking water bath. The rack of tubes was vortexed an additional time halfway through the incubation.
Incubations were terminated by filtration through 2.4 cm GF/B filters under reduced pressure. Each tube was filtered as follows: the contents of the tube were poured on the filter, 4 ml of ice-cold Tris were added to the tube and the contents poured onto the filter, and the filter was washed twice with 4 ml of ice-cold Tris. The filtration was complete in about twelve seconds. Filters were put in scintillation vials, 8 ml of Formula 947 scintillation fluid added, and the vials left overnight, shaken, and counted in a liquid scintillation counter at 40% efficiency.
Nonspecific binding was defined as binding in the presence of 100 μM N^6 -cyclopentyladenosine, and specific binding was defined as total binding minus nonspecific binding. The IC50 was calculated by weighted nonlinear least squares curve-fitting to the mass-action equation. [formula] where Y is cpm bound
T is cpm total binding without drug
S is cpm specific binding without drug
D is the concentration of drug and
K is the IC50 of the drug
Weighting factors were calculated under the assumption that the standard deviation was proportional to the predicted value of Y. Nonspecific binding was treated as a very large (infinite) concentration of drug in the computer analysis.

adenosine A1 receptor = biological target: T2, adenosine A1 receptor (Rattus norvegicus, UniProt P25099); test: Adenosine Receptor Binding--A1 Receptor Affinity (RBA1), [3H]-CHA, whole brain membranes; conditions: read-out: RBA-1 IC50
T2 construct: Whole brain minus cerebellum and brainstem from male Long-Evans rats; from tissue; host or cells: whole brain minus cerebellum and brainstem, male Long-Evans rats
T2 sequence (P25099 1-326): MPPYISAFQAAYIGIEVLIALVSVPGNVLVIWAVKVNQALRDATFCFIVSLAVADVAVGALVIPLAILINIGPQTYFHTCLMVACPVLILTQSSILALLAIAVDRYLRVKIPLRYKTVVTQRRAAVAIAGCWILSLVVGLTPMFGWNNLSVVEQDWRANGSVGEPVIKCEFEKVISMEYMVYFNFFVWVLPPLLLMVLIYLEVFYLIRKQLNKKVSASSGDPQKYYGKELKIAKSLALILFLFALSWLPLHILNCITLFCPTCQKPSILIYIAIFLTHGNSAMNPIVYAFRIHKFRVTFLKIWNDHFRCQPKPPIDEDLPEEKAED
Procedure: Adenosine Receptor Binding--A1 Receptor Affinity (RBA1 )
Whole brain minus cerebellum and brainstem from male Long-Evans rats (150-200 g) was homogenized in 30 volumes of ice-cold 0.05M Tris-HCl buffer pH 7.7 using a Brinkman Polytron PT-10, (setting number 6 for 20 seconds) and centrifuged for ten minutes at 20,000 xg (Sorvall RC-2), 4° C. The supernatant was discarded, and the pellet was resuspended and centrifuged as before. The pellet was resuspended in 20 ml Tris-HCl buffer containing two International Units/ml of adenosine deaminase (Sigma type III from calf intestinal mucosa), incubated at 37° C. for 30 minutes, then subsequently at 0° C. for ten minutes. The homogenate was again centrifuged, and the final pellet was resuspended in ice-cold 0.05M Tris-HCl buffer pH 7.7 to a concentration of 20 mg/ml original wet tissue weight and used immediately.
Tissue homogenate (10 mg/ml) was incubated in 0.05M Tris-HCl buffer pH 7.7 containing 1.0 nM [^3 H]--N^6 -cyclohexyladenosine ([^3 H]--CHA) with or without test agents in triplicate for one hour at 25° C. Incubation volume was 2 ml. Unbound [^3 H]--CHA was separated by rapid filtration under reduced pressure through Whatman glass fiber (GF/B) filters. The filters were rinsed three times with 5 ml of ice cold 0.05M Tris-HCl buffer pH 7.7. The radio-labeled ligand retained on the filter was measured by liquid scintillation spectrophotometry after shaking the filters for one hour or longer on a mechanical shaker in 10 ml of Beckman Ready-Solv HP scintillation cocktail.
Nonspecific binding was defined as the binding which occurred in the presence of 1 mM theophylline. The concentration of test agent which inhibited 50% of the specific binding (IC50) was determined by nonlinear computer curve fit. The Scatchard plot was calculated by linear regression of the line obtained by plotting the amount of radioligand bound (pmoles/gram of tissue) [formula] Since the amount of radioligand bound was a small fraction of the total amount added, free radioligand was defined as the concentration of (nM) of radioligand added to the incubation mixture. The Hill coefficient was calculated by linear regression of the line obtained by plotting the log of the bound radioligand vs the log of the [formula] The maximal number of binding sites (Bmax) was calculated from the Scatchard plot.

[1] = Activity and screen test, rat orally: inhibition of motor activity; format: in vivo; conditions: orally (PO)
[2] = Activity and screen test, rat orally: screen test; format: in vivo; conditions: orally (PO)
Procedure: A two part testing procedure is started one hour postinjection. First, the screen test (ST) is performed (see Pharmac. Biochem. Behav. 6, 351-353, 1977). Briefly this test consists of placing mice on individual wire screens which are then rotated 180 degrees at the start of a 60 second observation period. The number of mice falling off the inverted screen is recorded.
The data obtained from the screen test are expressed as percent of mice falling off the screen. Data derived from locomotor activity of drug treated mice are compared to the activity of vehicle treated animals and are expressed as percent inhibition of spontaneous locomotion. All percentages reported for inhibition of locomotion (LI) are based upon data accumulated for one hour. Both phases of testing are graded: A=60-100%; C=31-59%; and N=0-30%. An overall dose rating is obtained by the following criteria: […]

- pIC50 (adenosine A2 receptor): 4.46
- pIC50 (adenosine A1 receptor): 5.19
- Inhibition of screen test failure ([2]; 1 mg/kg): 11%
- Inhibition of screen test failure ([2]; 3 mg/kg): 0%
- Inhibition of screen test failure ([2]; 10 mg/kg): 0%
SMILES: [O-][n+]1cnc2c(ncn2[C@@H]2O[C@H](CO)[C@@H](O)[C@H]2O)c1NCC1(c2ccccc2)CC1 [Example 4, N6-((1-Phenylcyclopropyl)methyl)adenosine-N1-oxide]
- Inhibition of motor activity ([1]; 1 mg/kg): 2%
- Inhibition of motor activity ([1]; 3 mg/kg): 15%
- Inhibition of motor activity ([1]; 10 mg/kg): 2%
